Results published in patent publication US7335756B2, “Retinoic acid metabolizing cytochrome P450” (Cytochroma Inc., priority 2001, dated 2008).

Key:
P450RAI-3 [1] = target: T1, P450RAI-3 (Homo sapiens, UniProt Q6V0L0, F447L); assay: LC/MS analysis of ATRA and 9-cis-RA metabolism in Hela-P450RAI-3 stable cells; details: 5 hours
T1 sequence (Q6V0L0 1-522 F447L): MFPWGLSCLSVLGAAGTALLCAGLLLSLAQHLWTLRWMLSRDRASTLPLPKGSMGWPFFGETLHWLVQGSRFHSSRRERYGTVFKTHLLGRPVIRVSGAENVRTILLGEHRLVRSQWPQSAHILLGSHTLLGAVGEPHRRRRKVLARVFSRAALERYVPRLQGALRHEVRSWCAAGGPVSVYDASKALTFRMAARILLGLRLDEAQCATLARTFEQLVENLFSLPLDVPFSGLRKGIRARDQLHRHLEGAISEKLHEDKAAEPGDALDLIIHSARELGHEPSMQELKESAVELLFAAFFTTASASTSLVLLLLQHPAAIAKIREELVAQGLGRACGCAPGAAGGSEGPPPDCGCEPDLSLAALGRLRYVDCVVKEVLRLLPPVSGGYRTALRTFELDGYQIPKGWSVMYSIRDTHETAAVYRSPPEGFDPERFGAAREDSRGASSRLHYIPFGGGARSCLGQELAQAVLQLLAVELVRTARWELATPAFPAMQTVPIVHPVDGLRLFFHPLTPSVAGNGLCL
Protocol: After 5 hours incubation at 37° C., cells were acidified with acetic acid and total retinoids were extracted using Ethyl acetate method. The organic upper layer was pooled and evaporated in speed-vacuum, and dried residues were dissolved in HPLC mobile solvent and analyzed in LC/MS.
The HPLC system consisted of a waters alliance 2690 separations module. Chromatography was obtained on an Eclipse X DB-C18 reverse phase column (5 um, 2.1×150 mm from HP). A gradient elution program was used using acetonitrile, water and 10% acetic acid. The flow was held at 0.2 ml/min.
Mass Spectrometry condition used for this work consisted of a Micro-mass Quatro Ultima Tandem triple quadruple mass spectrometer equipped with electrospray interface (ESI) and operated in a negative mode.

P450RAI-3 [2] = target: T1, P450RAI-3; assay: [3H]-RA-metabolism inhibition, transient Cos-P450RAI-3 cell-based assay; design: expressed in transfected cells; host or cells: COS-1 (transient, pcDNA-P450RAI-3, Fugene); details: at lower concentrations
Protocol: The purpose of these experiments is to determine the specific substrates for P450RAI-3. […] The RA metabolism reaction was started by the addition of 50 ul of [^3H]-RA solution (20000 cpm, 2 nM final concentration). Cells were incubated for 3 hours in a humidified CO2 incubator at 37 degrees Celsius. The reaction was stopped by the addition of 5 ul of 10% acetic acid. Organic and aqueous soluble radio-labelled metabolites were extracted using the Bligh-Dyer procedure.

P450RAI-3 [3] = target: T1, P450RAI-3; assay: [3H]-RA-metabolism inhibition in mammalian microsomes from transient P450RAI-3-transfected Cos cells; type: biochemical; design: expressed in transfected cells; host or cells: COS-1 (transient, pcDNA-P450RAI-3, Fugene); details: read-out: ID50 (nM) P450RAI-3
Protocol: RA-metabolism activity was assessed using RA-metabolism microsomes-based assay and Bligh Dyer extraction as follows: Using an automatic repeating-pipette, gently thawed and homogenized microsomes were plated in a 48-well plate in final volume of 150 μl of storage buffer containing 0.5 mg/ml BSA. At indicated concentration 2 μl of compound solution was added to the assay and 2 μl of DMSO was added to MS control (quadruplet) and No-MS control. 50 μl of [^3H]-RA solution (30,000 cpm, 2 nM final concentration) was added. The microsomes assay with the compounds and the [^3H]-ATRA were incubated first for 10 min at 37° C., and then the reaction started by adding 20 μl of NADPH solution (or 1 mM final). After 1-hour incubation the reaction was stopped by adding 5 μl of 10% acetic acid. Organic and aqueous soluble radio-labelled metabolites were extracted using the Bligh-Dyer procedure. Saturated activity obtained in presence of NADPH at 5 μg of microsomes, FIG. 14.
Microsomes prepared from either stable Hela-CYP26-B or transient P450RAI-3-transfected Cos cells were used.

P450RAI-3 [4] = target: T1, P450RAI-3; assay: ATRA / 9-cis-RA metabolism in pcDNA-P450RAI-3 transfected Cos-1 cells (Bligh-Dyer, HPLC); type: cell-based; design: expressed in transfected cells; host or cells: COS-1 (transient, pcDNA-P450RAI-3, Fugene); details: 2 nM radio-labeled substrate, 3 hours
Protocol: Mammalian Cos-1 cells were transfected with either pcDNA-P450RAI-3 or pcDNA-control vector using Fugene™ (Roche diagnostic) according to the manufacturers directions. After 48 hours post-tranfection, cells were washed with PBS and assessed for ATRA-metabolism activity as described Briefly, transfected cells were incubated with radio-labeled ^3[H]-ATRA (18000 cpm, 2 nM) for 3 hours. Organic and Water-soluble metabolites were extracted using Bligh-Dyer procedure and radioactivity counted (FIG. 10).
HPLC analysis of the organic metabolites: the Bligh-Dyer organic button-layer was dried out and residues were suspended in HPLC solvent and then analyzed by HPLC as described in [White et al, PNAS, vol 97, pg 6403-6408], FIG. 11.
Mammalian Cos-1 cells were transfected with either pcDNA-P450RAI-3 or pcDNA-control vector according to the manufacturers directions using Fugene (Roche). After 48 hours post-tranfection, cells were washed with PBS and assessed for 9-cis-RA-metabolism activity as described using Bligh-Dyer procedure. Briefly, transfected cells were incubated with radio-labeled ^3[H]-9-cis-RA (38000 cpm, 2 nM) for 3 hours. Organic and Water-soluble metabolites were extracted using Bligh-Dyer procedure and radioactivity counted, FIG. 19.

## CC1=C(/C=C/C(C)=C/C=C/C(C)=C/C(=O)O)C(C)(C)CCC1 [ATRA, all-trans-retinoic-acid]
P450RAI-3 [1]
  metabolites formed by P450RAI-3: hydroxy and oxo-metabolites
P450RAI-3 [2]
  competition / inhibition of P450RAI-3: competed
P450RAI-3 [3]
  IC50: 20 nM
P450RAI-3 [4]
  metabolism by P450RAI-3: efficiently metabolize ATRA to polar metabolites
